The results in this text go back to US11925194B2, “Antimicrobially active mixtures” (SYMRISE AG, priority 2017, dated 2024).

In experiment [1] the test system is S. cerevisiae. The experiment is described as follows: Antimicrobial effect of extracts and fractions, citrate buffer pH 5. Format: cell-based, Saccharomyces cerevisiae. From the text: For further examination of the antimicrobial effect of different extracts alone, i.e. without a combination with component (B) or fractions thereof according to the invention, exemplary extracts or fractions thereof such as described in Examples 1 to 4 were used. […] The samples were inoculated with 3.8×10^4 CFU/mL […].

The test system of a further experiment is C. albicans. The experiment is described as follows: Germ load test of aroma and extract combinations, pure water pH 7. Conditions: 400 ppm in sample. The experiment is classed as cell-based, Candida albicans. From the text: (§1) In the scope of a further test, the antimicrobial effect of aroma and extract combinations was examined. […] For example, grape stone extract and the flavouring agent vanillic acid have a different effect against yeasts. In the combination, however, also an effect against fungi and an optimal effect against yeasts was observed. The pomegranate and red berry extract have a lower effect at pH 7 compared to pH 3 (cf. Example 5), the pomegranate extract eliminates S. cerevisiae in less than 14 days at 1000 mg/kg. In combination with Limonene-containing lemon oils, however, the effect can be increased for higher pH values.

A further experiment concerns Z. bailii. Described as above. The experiment is classed as cell-based, Zygosaccharomyces bailii. Conditions: 400 ppm in sample.
Excerpt: as §1

Experiment [2] concerns S. cerevisiae. The experiment is described as above. The experiment is classed as cell-based, Saccharomyces cerevisiae. Conditions: 400 ppm in sample.
Excerpt: as §1

Where only a bound is given, the exact number is not on record here.

As to `C/C=C/C=C/C(=O)[O-].[K+]` [potassium sorbate], in the experiment with S. cerevisiae [1] (375 mg/kg, pH 5, 28 days), the “Reduction in the germination number of S. cerevisiae (in words)” value is on record as “did not show a significant reduction”. In the experiment with S. cerevisiae [1] (dose 375 mg/kg, citrate buffer pH 5, after inoculation 3.80E+04), the “Germination number S. cerevisiae after 28 days” value is 1.00E+03 CFU/mL.
Take `COc1cc(C(=O)O)ccc1O` [Vanillic acid]: the “Elimination of C. albicans in less than (time)” value in the experiment with C. albicans was under 24 h. In addition, the “Elimination of Z. bailii in less than (time)” value in the experiment with Z. bailii is under 24 h. The “Elimination of S. cerevisiae in less than (time)” value in the experiment with S. cerevisiae [2] is given as under 14 days.
